Assay results published in article PMC12655457, “Does CytoSorb Interfere with Immunosuppression? A Pharmacokinetic and Functional Evaluation” (Pharmaceutics, 2025).

What was measured:
[1] = Removal of immunosuppressants by chronic dialysis (ex vivo, plasma); type: in vitro ADME, human; settings: for clearance: initial values
Experimental: (§1) To evaluate the effect of dialysis under clinically relevant conditions, both chronic and acute dialysis settings were simulated using standard Fresenius systems. In all experiments, 1.5 L of citrated human plasma was dialyzed against calcium-free dialysate at 37 °C.
(§2) Prior to circulation, the systems were flushed with 2 L of isotonic saline. Plasma samples were collected at defined time points (15–480 min) and analyzed for immunosuppressants, urea, and albumin. Chronic dialysis represents intermittent high-flow conditions, whereas acute dialysis mimics continuous low-flow therapy used in critically ill patients.
(§3) The clearance (C) of each compound during both the dialysis and the dynamic CytoSorb experiments was calculated using the first-order exponential decay formula:(2) C = V/t ×lnCo/Ct where V = plasma volume, t = treatment time [min], C0 = concentration before starting treatment, Ct = concentration at time t.

human whole blood [2] = assay: Whole blood cell model: LPS stimulation, cytokine measurement; type: cell-based; settings: + CytoSorb
Experimental: (§6) Subsequently, the blood was split into two experimental groups: one was treated with CytoSorb in a batch setup, and the other served as an untreated control, incubated under identical conditions at 37 °C on a roller mixer. Following treatment, all samples were allowed to rest for 4 h. After the resting period, blood samples were stimulated with either lipopolysaccharide (LPS) E. coli or with anti-CD3 antibodies. […] The stimulation was carried out for 4 h at 37 °C on a roller mixer. Thereafter, the blood samples were centrifuged, and the plasma was collected and stored at −80 °C. Leukocyte activation was assessed by quantification of IL-1β, IL-6, IL-8, and TNF-α.

[3] = Whole blood cell model: immunosuppressant serum levels after CytoSorb treatment; type: in vitro ADME, human; settings: overnight incubation, p < 0.05, n = 6
Experimental: To investigate whether the in vitro depletion of immunosuppressants by CytoSorb affects immunosuppression, a whole blood cell model was established. The experiment was conducted over two consecutive days. A graphical overview of the setup is provided in Supplementary Figure S1. On day one, freshly drawn human whole blood was incubated overnight at 37 °C with various immunosuppressants, either individually or in combination, to allow for sufficient drug exposure prior to CytoSorb treatment.
Subsequently, the blood was split into two experimental groups: one was treated with CytoSorb in a batch setup, and the other served as an untreated control, incubated under identical conditions at 37 °C on a roller mixer. Following treatment, all samples were allowed to rest for 4 h. After the resting period, blood samples were stimulated with either lipopolysaccharide (LPS) E. coli or with anti-CD3 antibodies. LPS primarily activates monocytes and neutrophils via the TLR4/CD14/MD2 complex, while anti-CD3 specifically stimulates T cells. The stimulation was carried out for 4 h at 37 °C on a roller mixer. Thereafter, the blood samples were centrifuged, and the plasma was collected and stored at −80 °C. Leukocyte activation was assessed by quantification of IL-1β, IL-6, IL-8, and TNF-α.
(§4) MPA was determined using a validated test for the Cobas c311 autoanalyzer from Roche (Basel, Switzerland). 6-MP was quantified by reversed-phase HPLC [17, 18]. After precipitation of the plasma sample with ice cold methanol in ratio 1:5, 30 µL of the supernatant was injected into a Nukleosil 100-5C18, 4.6 × 150 mm C18 column (Macherey-Nagel, Düren, Germany), combined with an Onyx Monolithic C18, 4.6 × 5 mm guard column (Phenomenex, Torrance, CA, USA). The mobile phase consisted of methanol and deionised water (50:50) which was continuously pumped with a flow rate of 0.8 mL/min for five minutes. 6-MP was quantified with a retention time of 2.3 min using an UV detector (325 nm). The quantification of cytokines was determined by Magnetic Luminex Assay with a human premixed Multi Analyte Kit (R&D Systems, Minneapolis, MN, USA). The urea, albumin and total protein levels were measured with the cobas c311 automated analyzer with corresponding test kits from Roche (Penzberg, Germany).

[4] = Dynamic CytoSorb adsorption setup (scaled-down circuit, whole blood); type: in vitro ADME, human; settings: for mean clearance rate: CytoSorb treatment, at 15 min, Equation (2); for adsorption (removal) by CytoSorb: dynamic ex vivo circuit, 400 mL human whole blood, 30 mL cartridge, 4 h
Experimental: To quantify the depletion of selected immunosuppressants during CytoSorb treatment under dynamic conditions, a scaled-down extracorporeal circulation system was established, consisting of a 30 mL CytoSorb adsorption cartridge and a pediatric tubing set filled with 400 mL of freshly drawn human whole blood (Figure 1b). To distinguish between drug removal by adsorption versus uptake by blood components, a control circuit with an identical setup but an empty cartridge was run in parallel for each experiment. Whole blood from two healthy donors of the same blood group was pooled, anticoagulated with citrate (final concentration: 7 mM), spiked with the immunosuppressants, and divided into two 400 mL blood bags.
Prior to circulation, the entire system was flushed with isotonic saline. Then, one of the prepared blood bags (Group 1 or Group 2) was connected to the circuit and circulated for 30 min at 37 °C without the adsorber cartridge to allow for equilibration. Following this equilibration, a baseline sample (0 min) was collected, and the adsorption column was introduced into the circuit. In the adsorption circuit, samples were collected at 15, 30, 60, 120, 180 and 240 min. In the control circuit, samples were taken at baseline and after 240 min. All blood samples were centrifuged (3500× g, 10 min) to separate plasma, which was stored at −80 °C until further analysis.
as §3, §4

[5] = Static CytoSorb adsorption setup (spiked plasma with CytoSorb resin); type: in vitro ADME, human; settings: plasma:resin 1:10 v/v, 60 min, 37 °C, n = 3
Experimental: (§5) Plasma was obtained by centrifugation (3500× g, 10 min) from citrate-anticoagulated human whole blood and spiked with immunosuppressants to defined target concentrations (Table 1). To evaluate adsorption, plasma was incubated with the CytoSorb resin at 1:10 (v/v) for 60 min at 37 °C on a roller mixer. In parallel, a separate aliquot of spiked plasma was incubated with autologous blood cells (1:1, v/v) to assess cellular uptake of immunosuppressants. Untreated spiked plasma served as control (Figure 1a). Samples were collected before and after incubation for subsequent analysis.
as §4

[6] = parameters: method as in earlier work; settings: literature; ref 23 (methylprednisolone), 24 (mycophenolate), 41 (6-mercaptopurine); cited from earlier work
human whole blood [7] = assay: Whole blood cell model: anti-CD3 stimulation, cytokine measurement; type: cell-based; settings: + Anti-CD3, + CytoSorb
Experimental: as §6

[8] = Determination of protein binding by ultrafiltration; type: in vitro ADME; settings: human plasma, ultrafiltration 30 kDa cutoff; read-out: Protein Binding in Plasma, Current Study (converted)
Experimental: To assess protein binding of the tested immunosuppressants, human plasma was spiked with the respective drugs and urea as a freely diffusible control. Samples were then subjected to ultrafiltration (30 kDa cutoff, 15,000× g, 20 min). The protein-bound fraction was calculated using the following formula:(1) protein binding %= 1−Cfiltrate/Cplasma where cplasma is the concentration of each compound in plasma and cfiltrate is its concentration in the ultrafiltrate.

[9] = literature; ref 21 (6-MP), 22 (CsA), 23 (MPR), 24 (MPA), 25 (TAC); cited from earlier work
[10] = Removal of immunosuppressants by acute dialysis (CVVHD, ex vivo, plasma); type: in vitro ADME, human
Experimental: as §1, §2, §3

autologous blood cells = assay: Cellular uptake of immunosuppressants by autologous blood cells (static setup); type: in vitro ADME, human; settings: spiked plasma with autologous blood cells 1:1 v/v, n = 3
Experimental: as §5
MPA was determined using a validated test for the Cobas c311 autoanalyzer from Roche (Basel, Switzerland). 6-MP was quantified by reversed-phase HPLC [17, 18]. […] 6-MP was quantified with a retention time of 2.3 min using an UV detector (325 nm). The quantification of cytokines was determined by Magnetic Luminex Assay with a human premixed Multi Analyte Kit (R&D Systems, Minneapolis, MN, USA). The urea, albumin and total protein levels were measured with the cobas c311 automated analyzer with corresponding test kits from Roche (Penzberg, Germany).

With `C[C@H]1C[C@@H]2[C@H]([C@@H](O)C[C@@]3(C)[C@H]2CC[C@]3(O)C(=O)CO)[C@@]2(C)C=CC(=O)C=C12` [MPR, methylprednisolone] the “removal by dialysis (in words)” value [1] was “high removal”, the clearance [1] was ~ 75 mL/min and the IL-1β serum level (human whole blood [2]; test 1) was 354 pg/mL. It also gave an IL-6 serum level (human whole blood [2]; test 1) of 3786 pg/mL, an IL-8 serum level (human whole blood [2]; test 1) of 6337 pg/mL and a TNF-α serum level (human whole blood [2]; test 1) of 2920 pg/mL. It also gave an IL-1β serum level (human whole blood [2]; test 2) of 26 pg/mL, an IL-6 serum level (human whole blood [2]; test 2) of 73 pg/mL and an IL-8 serum level (human whole blood [2]; test 2) of 1630 pg/mL. The TNF-α serum level (human whole blood [2]; test 2) was 416 pg/mL, the IL-1β serum level (human whole blood [2]; test 3) was 190 pg/mL and the IL-6 serum level (human whole blood [2]; test 3) was 3799 pg/mL. The IL-8 serum level (human whole blood [2]; test 3) was 7104 pg/mL, the TNF-α serum level (human whole blood [2]; test 3) was 1250 pg/mL and the “reduction in serum level following CytoSorb treatment (in words)” value [3] was “significant reduction”. The mean clearance rate [4] was ~49 mL/min, the “reduction of serum levels by CytoSorb (abstract)” value ([4]; as stated in the abstract, experiment not specified) was 92 ± 3% and the “adsorption (removal) by CytoSorb” value [4] was 92 ± 3%. The “reduction of level in plasma by CytoSorb” value [5] was 91 ± 2%, the “volume of distribution (Vd)” value [6] was “≈ 1.4 L/kg” and the IL-1β serum level (human whole blood [7]; test 1) was 0 pg/mL. For the same compound, the IL-6 serum level (human whole blood [7]; test 1) was 1 pg/mL, the IL-8 serum level (human whole blood [7]; test 1) was 171 pg/mL and the TNF-α serum level (human whole blood [7]; test 1) was 43 pg/mL. For the same compound, the IL-1β serum level (human whole blood [7]; test 2) was 44 pg/mL, the IL-6 serum level (human whole blood [7]; test 2) was 16 pg/mL and the IL-8 serum level (human whole blood [7]; test 2) was 242 pg/mL. It also gave a TNF-α serum level (human whole blood [7]; test 2) of 57 pg/mL, an IL-1β serum level (human whole blood [7]; test 3) of 70 pg/mL and an IL-6 serum level (human whole blood [7]; test 3) of 30 pg/mL. The IL-8 serum level (human whole blood [7]; test 3) was 686 pg/mL, the TNF-α serum level (human whole blood [7]; test 3) was 41 pg/mL and the fraction unbound [8] was 0.066. For the same compound, the “Protein Binding in Plasma, Reference” value [9] was 77 [23] %, the “removal by dialysis (in words)” value [10] was “moderate removal” and the clearance ([10]; after 8 h) was “below 10 mL/min”. For the same compound, the clearance ([10]; highest value reached) was ≤ 28 mL/min.

In the case of `Sc1ncnc2nc[nH]c12` [6-MP, 6-mercaptopurine], the “removal by dialysis (in words)” value [1] is reported as “efficiently removed”, the clearance [1] is reported as ~ 190 mL/min and the IL-1β serum level (human whole blood [2]; test 1) is reported as 354 pg/mL. For the same compound, the IL-6 serum level (human whole blood [2]; test 1) was 3786 pg/mL, the IL-8 serum level (human whole blood [2]; test 1) was 6337 pg/mL and the TNF-α serum level (human whole blood [2]; test 1) was 2920 pg/mL. The IL-1β serum level (human whole blood [2]; test 2) was 44 pg/mL, the IL-6 serum level (human whole blood [2]; test 2) was 730 pg/mL and the IL-8 serum level (human whole blood [2]; test 2) was 2253 pg/mL. The TNF-α serum level (human whole blood [2]; test 2) was 1762 pg/mL, the IL-1β serum level (human whole blood [2]; test 3) was 190 pg/mL and the IL-6 serum level (human whole blood [2]; test 3) was 3799 pg/mL. For the same compound, the IL-8 serum level (human whole blood [2]; test 3) was 7104 pg/mL, the TNF-α serum level (human whole blood [2]; test 3) was 1250 pg/mL and the “reduction in serum level following CytoSorb treatment (in words)” value [3] was “significant reduction”. The mean clearance rate [4] was ~31 mL/min, the “adsorption (removal) by CytoSorb” value [4] was 47 ± 16% and the “reduction of level in plasma by CytoSorb” value [5] was 33 ± 11%. The “volume of distribution (Vd)” value [6] was “≈ 0.9 L/kg”, the IL-1β serum level (human whole blood [7]; test 1) was 0 pg/mL and the IL-6 serum level (human whole blood [7]; test 1) was 3 pg/mL. For the same compound, the IL-8 serum level (human whole blood [7]; test 1) was 205 pg/mL, the TNF-α serum level (human whole blood [7]; test 1) was 12 pg/mL and the IL-1β serum level (human whole blood [7]; test 2) was 75 pg/mL. For the same compound, the IL-6 serum level (human whole blood [7]; test 2) was 381 pg/mL, the IL-8 serum level (human whole blood [7]; test 2) was 4175 pg/mL and the TNF-α serum level (human whole blood [7]; test 2) was 46 pg/mL. For the same compound, the IL-1β serum level (human whole blood [7]; test 3) was 70 pg/mL, the IL-6 serum level (human whole blood [7]; test 3) was 30 pg/mL and the IL-8 serum level (human whole blood [7]; test 3) was 686 pg/mL. The TNF-α serum level (human whole blood [7]; test 3) was 41 pg/mL, the fraction unbound [8] was 0.662 and the “Protein Binding in Plasma, Reference” value [9] was 39 [21] %. For the same compound, the “removal by dialysis (in words)” value [10] was “efficiently removed”, the clearance ([10]; after 8 h) was “below 10 mL/min” and the clearance ([10]; highest value reached) was “up to 30 mL/min”. For the same compound, the “absorbed / reduced by blood cells” value (autologous blood cells) was 36 ± 6%.
